Source: publication PMC11648915, “Identification and development of TRPM4 antagonists to counteract neuronal excitotoxicity” (iScience, 2024)
Read-outs that look alike come from different tables or passages of the source.

What was measured:
human TRPM4 = human TRPM4 (Homo sapiens, UniProt Q8TD43); experiment: QPatch automated patch clamp on TRPM4-expressing HEK293 cells; format: cell-based; settings: hsTRPM4-expressing HEK293 cells
Description: QPatchHTX, an automated electrophysiology platform, was used in single hole mode. One day before use human TRPM4- or TRPM5-expressing HEK293 cells were seeded in a T75 flask at a density of 53k cells per cm^2 and at passages < 23. […] The extracellular solution was (in mM): CaCl2 (7), MgCl2 (2), KCl (5), HEPES (10), NaCl (70), NMDG (70); pH 7.4 with NaOH. The intracellular solution was (in mM): HEPES (10), NMDG (100), NaCl (50), EGTA (20), MgCl2 (1), CaCl2 (21); pH 7.2 with HCl. […] This protocol was repeated every 7 seconds. […] FFA was used as reference compound and applied cumulatively with each concentration incubating at a minimum of 20 voltage protocol runs (140 seconds) with the current after addition of FFA being calculated as full block. […] Each compound was measured at least 3 time independently.

human TRPM5 = target: T1, human TRPM5 (Homo sapiens, UniProt Q9NZQ8); experiment: QPatch automated patch clamp on TRPM5-expressing HEK293 cells; format: cell-based; settings: hsTRPM5-expressing HEK293 cells
T1 sequence (Q9NZQ8 1-1165): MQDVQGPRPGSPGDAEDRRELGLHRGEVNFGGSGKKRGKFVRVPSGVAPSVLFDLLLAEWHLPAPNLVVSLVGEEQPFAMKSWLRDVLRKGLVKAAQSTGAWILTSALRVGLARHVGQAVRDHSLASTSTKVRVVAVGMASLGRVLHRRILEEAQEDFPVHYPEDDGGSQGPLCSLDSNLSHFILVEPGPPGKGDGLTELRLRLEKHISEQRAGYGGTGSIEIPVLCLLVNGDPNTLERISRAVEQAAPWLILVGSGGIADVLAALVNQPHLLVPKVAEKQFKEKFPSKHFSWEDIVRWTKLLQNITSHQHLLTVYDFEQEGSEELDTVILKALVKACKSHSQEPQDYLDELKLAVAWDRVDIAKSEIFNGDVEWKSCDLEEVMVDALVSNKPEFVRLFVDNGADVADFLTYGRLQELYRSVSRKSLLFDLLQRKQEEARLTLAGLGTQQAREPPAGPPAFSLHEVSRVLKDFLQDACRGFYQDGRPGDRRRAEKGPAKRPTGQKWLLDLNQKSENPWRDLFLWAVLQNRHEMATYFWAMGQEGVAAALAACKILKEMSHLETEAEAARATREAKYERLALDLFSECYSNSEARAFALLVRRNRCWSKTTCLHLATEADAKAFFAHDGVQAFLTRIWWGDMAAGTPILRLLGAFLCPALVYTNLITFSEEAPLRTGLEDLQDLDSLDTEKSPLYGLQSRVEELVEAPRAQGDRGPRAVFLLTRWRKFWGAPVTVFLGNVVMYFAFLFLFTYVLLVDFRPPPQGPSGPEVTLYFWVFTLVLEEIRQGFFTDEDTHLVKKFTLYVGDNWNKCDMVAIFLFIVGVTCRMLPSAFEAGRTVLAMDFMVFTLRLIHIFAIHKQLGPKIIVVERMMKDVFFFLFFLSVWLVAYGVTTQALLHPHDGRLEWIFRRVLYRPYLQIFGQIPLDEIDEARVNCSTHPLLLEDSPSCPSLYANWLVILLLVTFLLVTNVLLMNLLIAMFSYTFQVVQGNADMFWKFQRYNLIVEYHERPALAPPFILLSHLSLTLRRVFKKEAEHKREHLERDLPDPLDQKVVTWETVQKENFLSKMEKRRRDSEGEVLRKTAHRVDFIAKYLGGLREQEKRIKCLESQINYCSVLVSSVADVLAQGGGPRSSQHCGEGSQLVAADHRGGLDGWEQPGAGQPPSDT
From the text: The counter screening phase involved the inclusion of hsTRPM5-expressing HEK293 cells, as closest homologue, and the parental HEK293 cell line to evaluate selectivity. […] Based on categorization of biological activity, mass spectrometry quality control, and aspects of medicinal chemistry, we prioritized 144 selective hsTRPM4 compounds. These compounds were then subjected to automated patch clamp electrophysiology measurements (QPatch[58]) to evaluate their activity profiles and IC50 values (Figures 1A, S1, and S2).
QPatchHTX, an automated electrophysiology platform, was used in single hole mode. One day before use human TRPM4- or TRPM5-expressing HEK293 cells were seeded in a T75 flask at a density of 53k cells per cm^2 and at passages < 23. For QPatch assays, cells were harvested and re-suspended in SFM (Gibco, 11686029). The extracellular solution was (in mM): CaCl2 (7), MgCl2 (2), KCl (5), HEPES (10), NaCl (70), NMDG (70); pH 7.4 with NaOH. The intracellular solution was (in mM): HEPES (10), NMDG (100), NaCl (50), EGTA (20), MgCl2 (1), CaCl2 (21); pH 7.2 with HCl. After break-in, channels were consistently open and current through the channels could be observed at a voltage ramp from –100 mV to +100 mV over 500 ms. This protocol was repeated every 7 seconds. After saline and vehicle application, the channel was desensitized and residual current was used as baseline. FFA was used as reference compound and applied cumulatively with each concentration incubating at a minimum of 20 voltage protocol runs (140 seconds) with the current after addition of FFA being calculated as full block. […] Each compound was measured at least 3 time independently.

[1] = target: potassium channel human Ether-a-go-go Related Gene (hERG) (Homo sapiens, UniProt Q12809); experiment: hERG channel inhibition; format: cell-based
Sequence of potassium channel human Ether-a-go-go Related Gene (hERG) (Q12809 whole entry): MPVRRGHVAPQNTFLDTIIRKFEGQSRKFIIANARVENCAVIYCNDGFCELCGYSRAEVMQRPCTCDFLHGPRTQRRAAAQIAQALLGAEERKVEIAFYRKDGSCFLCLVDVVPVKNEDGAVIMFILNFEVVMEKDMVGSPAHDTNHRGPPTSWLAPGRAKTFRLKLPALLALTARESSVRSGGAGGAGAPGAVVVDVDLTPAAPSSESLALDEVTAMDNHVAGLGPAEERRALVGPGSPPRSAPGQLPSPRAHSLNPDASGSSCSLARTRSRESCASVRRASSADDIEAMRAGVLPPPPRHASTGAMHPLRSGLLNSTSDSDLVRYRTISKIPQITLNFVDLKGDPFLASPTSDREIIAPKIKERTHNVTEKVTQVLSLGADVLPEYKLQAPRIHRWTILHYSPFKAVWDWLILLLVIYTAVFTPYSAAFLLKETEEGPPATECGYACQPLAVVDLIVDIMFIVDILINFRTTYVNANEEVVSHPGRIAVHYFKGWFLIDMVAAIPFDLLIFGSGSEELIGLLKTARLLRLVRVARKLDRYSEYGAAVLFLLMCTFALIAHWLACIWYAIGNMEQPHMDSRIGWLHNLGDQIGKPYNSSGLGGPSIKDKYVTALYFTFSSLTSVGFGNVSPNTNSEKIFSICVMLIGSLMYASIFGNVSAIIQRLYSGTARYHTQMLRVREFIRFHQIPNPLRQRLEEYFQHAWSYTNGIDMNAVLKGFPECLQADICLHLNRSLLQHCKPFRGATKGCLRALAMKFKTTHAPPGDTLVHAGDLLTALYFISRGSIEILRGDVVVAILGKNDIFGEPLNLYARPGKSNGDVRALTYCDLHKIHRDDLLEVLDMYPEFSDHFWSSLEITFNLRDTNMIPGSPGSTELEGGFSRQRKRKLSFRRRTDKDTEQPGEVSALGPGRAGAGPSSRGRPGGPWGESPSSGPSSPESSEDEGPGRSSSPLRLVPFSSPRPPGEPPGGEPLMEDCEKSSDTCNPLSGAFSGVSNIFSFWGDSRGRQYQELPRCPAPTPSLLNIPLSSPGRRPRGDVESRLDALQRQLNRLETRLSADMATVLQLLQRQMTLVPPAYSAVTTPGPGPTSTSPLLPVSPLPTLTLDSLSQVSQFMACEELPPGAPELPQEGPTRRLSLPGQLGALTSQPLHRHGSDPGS
From the text: We next used in vitro assays to test absorption, distribution, metabolism, excretion and toxicity (ADMET) parameters for selected compounds. We assessed compound absorption using parallel artificial membrane permeability (PAMPA) and Caco-2 cell permeability assays (cut-off criterion >2 × 10^−6 cm s^−1). […] To assess potential off-target activity of our compounds that could be relevant for safety in humans, we conducted comprehensive in vitro pharmacology using the commercially available and widely used SafetyScreen44 interaction panel[60] covering eight protein families.

CYP2D6 = target: T2, CYP2D6 (Homo sapiens, UniProt P10635); experiment: CYP inhibition assay 2D6; format: in vitro ADME
T2 construct: purchased BD Gentest
T2 sequence (P10635 whole entry): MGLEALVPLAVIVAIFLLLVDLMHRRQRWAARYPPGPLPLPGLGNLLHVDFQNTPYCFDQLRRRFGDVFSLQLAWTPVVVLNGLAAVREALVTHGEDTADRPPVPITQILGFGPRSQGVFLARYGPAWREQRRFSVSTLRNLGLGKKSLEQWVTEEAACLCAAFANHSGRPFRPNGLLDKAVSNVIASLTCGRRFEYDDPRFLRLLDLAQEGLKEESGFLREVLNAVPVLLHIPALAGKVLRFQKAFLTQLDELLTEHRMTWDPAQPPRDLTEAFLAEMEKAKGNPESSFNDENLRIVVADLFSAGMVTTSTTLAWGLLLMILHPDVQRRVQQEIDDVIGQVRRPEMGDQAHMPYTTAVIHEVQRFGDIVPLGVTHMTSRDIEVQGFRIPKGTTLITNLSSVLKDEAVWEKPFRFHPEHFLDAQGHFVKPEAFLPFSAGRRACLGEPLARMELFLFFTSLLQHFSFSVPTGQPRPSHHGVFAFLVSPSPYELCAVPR
Description: (§1) The half-maximal inhibitory concentration (IC50) for cytochrome P450 (CYP) enzymes was determined using an in vitro enzyme inhibition assay. Recombinant CYP enzymes or human liver microsomes from BD Gentest, in 0.1 M phosphate buffer pH 7.4, containing native CYP enzymes were incubated with the test compound at various concentrations (1, 3, 10 and 30 μM) and containing 0.5% DMSO and 0.1% BSA final concentrations. 1 mM of NADPH cofactor was added and the reaction was started by a rapid increase of temperature until 37°C.

CYP3A4 = target: T3, CYP3A4 (Homo sapiens, UniProt P08684); experiment: CYP inhibition assay 3A4; format: in vitro ADME
T3 construct: purchased BD Gentest
T3 sequence (P08684 whole entry): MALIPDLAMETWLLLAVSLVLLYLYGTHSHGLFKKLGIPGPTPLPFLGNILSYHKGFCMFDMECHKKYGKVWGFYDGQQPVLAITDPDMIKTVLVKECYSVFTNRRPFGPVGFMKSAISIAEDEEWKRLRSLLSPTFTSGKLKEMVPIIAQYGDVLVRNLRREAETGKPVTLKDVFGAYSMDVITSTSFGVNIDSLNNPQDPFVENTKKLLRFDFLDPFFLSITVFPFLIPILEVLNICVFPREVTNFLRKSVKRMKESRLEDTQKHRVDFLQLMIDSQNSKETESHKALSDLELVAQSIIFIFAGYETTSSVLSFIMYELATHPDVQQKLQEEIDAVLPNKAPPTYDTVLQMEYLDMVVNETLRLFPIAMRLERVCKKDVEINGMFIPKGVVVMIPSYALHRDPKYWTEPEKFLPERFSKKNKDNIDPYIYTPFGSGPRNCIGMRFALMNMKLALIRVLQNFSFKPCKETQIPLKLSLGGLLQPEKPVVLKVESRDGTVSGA
Description: as §1

[2] = TDI, read-out: Cyp IC50 TDI 3A4

Sequence of human TRPM4 (Q8TD43 whole entry): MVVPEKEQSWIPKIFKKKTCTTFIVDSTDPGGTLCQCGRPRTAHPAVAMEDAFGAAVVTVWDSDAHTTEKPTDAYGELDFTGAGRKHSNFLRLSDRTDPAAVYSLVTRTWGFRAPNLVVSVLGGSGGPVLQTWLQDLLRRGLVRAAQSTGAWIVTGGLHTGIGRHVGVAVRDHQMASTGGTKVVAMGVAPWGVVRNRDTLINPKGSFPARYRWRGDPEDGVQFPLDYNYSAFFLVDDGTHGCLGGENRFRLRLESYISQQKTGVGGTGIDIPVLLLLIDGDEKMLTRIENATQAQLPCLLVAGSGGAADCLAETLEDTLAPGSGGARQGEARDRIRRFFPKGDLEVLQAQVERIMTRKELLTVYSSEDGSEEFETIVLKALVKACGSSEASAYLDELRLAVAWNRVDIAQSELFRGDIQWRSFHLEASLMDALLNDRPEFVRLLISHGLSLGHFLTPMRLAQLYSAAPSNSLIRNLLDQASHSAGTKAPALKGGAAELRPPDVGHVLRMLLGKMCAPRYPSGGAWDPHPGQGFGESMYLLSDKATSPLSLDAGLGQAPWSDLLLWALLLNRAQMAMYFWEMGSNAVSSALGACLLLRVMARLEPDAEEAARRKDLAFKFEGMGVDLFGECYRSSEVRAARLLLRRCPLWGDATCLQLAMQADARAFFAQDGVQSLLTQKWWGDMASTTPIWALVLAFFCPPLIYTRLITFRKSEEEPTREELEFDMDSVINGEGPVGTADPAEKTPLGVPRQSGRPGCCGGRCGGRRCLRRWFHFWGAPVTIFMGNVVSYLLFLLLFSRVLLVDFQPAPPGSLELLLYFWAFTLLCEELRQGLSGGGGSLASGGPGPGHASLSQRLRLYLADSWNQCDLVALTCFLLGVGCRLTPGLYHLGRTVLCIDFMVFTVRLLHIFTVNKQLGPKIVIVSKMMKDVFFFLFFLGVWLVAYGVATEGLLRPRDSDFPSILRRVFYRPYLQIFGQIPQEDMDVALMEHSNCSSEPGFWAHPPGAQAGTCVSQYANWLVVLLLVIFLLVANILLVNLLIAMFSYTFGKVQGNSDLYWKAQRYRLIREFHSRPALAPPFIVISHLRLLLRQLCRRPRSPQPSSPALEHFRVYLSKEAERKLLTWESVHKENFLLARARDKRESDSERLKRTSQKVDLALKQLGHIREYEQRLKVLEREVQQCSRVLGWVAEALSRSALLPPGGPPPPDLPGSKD

IC50 (human TRPM5) [µM] | IC50 (CYP2D6; human, pH 7.4) [µM] | IC50 (CYP3A4; human, pH 7.4) [µM] | Structure (SMILES) | IC50 (human TRPM4) [µM] | IC50 [1] [µM] | IC50 (CYP2D6) [µM] | IC50 (CYP3A4; [2]) [µM] | IC50 (CYP3A4; read-out: Cyp IC50 3A4) [µM]
> 10 |  |  | c1csc(-c2ccccc2NCc2nc3ccccc3o2)c1 [CMP355] | 0.59 | > 10 | > 50 | > 50 | > 50
> 10 | > 50 | > 50 | Cc1ccsc1-c1ccccc1NCc1nc2ccccc2o1 [CMP369] |  | > 10 |  |  | 
> 30 |  |  | Nc1ccccc1-c1ccccc1NCc1nc2ccccc2o1 [CMP457] |  |  | > 50 |  | 

Structure (SMILES) | IC50 (human TRPM5) [µM] | IC50 (CYP2D6; human, pH 7.4) [µM] | IC50 (CYP3A4; human, pH 7.4) [µM] | IC50 (human TRPM4) [µM] | IC50 [1] [µM] | IC50 (CYP2D6) [µM] | IC50 (CYP3A4; [2]) [µM] | IC50 (CYP3A4; read-out: Cyp IC50 3A4) [µM]
Fc1ccccc1-c1ccccc1NCc1nc2ccccc2o1 [CMP353] | > 10 |  |  | 0.08 | > 10 | > 50 |  | > 29.6
Fc1cccc(-c2ccccc2NCc2nc3ccccc3o2)c1 [CMP343] | > 10 |  |  | 0.09 | > 30 | > 50 | > 50 | > 50
